Literature values, collected in patent US20030144252A1, “Combination product comprising a non-steroidal antiandrogen and an egfr tyrosine kinase inhibitor” (priority 2000, published 2003).

Tests used:
androgen receptor = conditions: LNCaP prostate cancer cell line
[1] = test system: LNCaP prostate cancer cell line

Structure (SMILES)	block of HER2/neu protein induced activation of the androgen receptor (androgen receptor)	block of EGF induced cell growth [1]
CC(C)(O)C(=O)Nc1ccc([N+](=O)[O-])c(C(F)(F)F)c1 [hydroxyflutamide]	could partially block	–
CC(O)(CS(=O)(=O)c1ccc(F)cc1)C(=O)Nc1ccc(C#N)c(C(F)(F)F)c1 (centres unmarked) [bicalutamide, 4′-cyano-3-(4-fluorophenylsulphonyl)-2-hydroxy-2-methyl-3′-(trifluoromethyl)propionanilide]	–	could partially block
